Target: T1, human CCR1 (Homo sapiens, UniProt P32246)
T1 sequence (P32246 1-355): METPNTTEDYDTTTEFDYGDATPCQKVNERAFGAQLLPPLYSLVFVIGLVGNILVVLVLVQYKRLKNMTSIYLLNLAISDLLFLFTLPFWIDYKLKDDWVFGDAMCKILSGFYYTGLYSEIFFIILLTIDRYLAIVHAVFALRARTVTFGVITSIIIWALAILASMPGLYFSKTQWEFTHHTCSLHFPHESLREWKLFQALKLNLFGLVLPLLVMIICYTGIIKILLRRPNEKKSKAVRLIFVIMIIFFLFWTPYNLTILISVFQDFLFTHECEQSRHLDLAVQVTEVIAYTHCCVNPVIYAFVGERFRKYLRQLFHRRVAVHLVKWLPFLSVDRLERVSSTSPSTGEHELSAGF
Experiment: CCR1 binding protocol (SPA, [125I]-MIP-1α displacement)
Details: cell membrane expressing human CCR1, 0.1 nM [125I]-MIP-1α, 4 hours at ambient temperature; read-out: Relative potency (IC50)
Procedure, shortened: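 Human CCR1 membranes (0.5 μg/well) on SPA beads were incubated with compound and 0.1 nM [125I]-MIP-1α (final) for 4 h at ambient temperature. Buffer was Tris pH 7.4 with NaCl, KCl, MnCl and 0.1% BSA. IC50 came from ½-log compound dilutions (10 mM top DMSO stock) by displacement of bound radioligand.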

Row | Structure (SMILES) | IC50
1 | Cc1nnc([C@H]2CCCN2C(=O)Nc2ccc(Cl)cc2F)n1Cc1ccc(Cl)c(Cl)c1 [Compound 384] | 0.05 to 0.5 µM
2 | Cc1noc(C)c1NC(=O)N1CCC[C@@H]1c1nnc(C)n1Cc1ccc(F)cc1 [Compound 385] | 0.05 to 0.5 µM
3 | Cc1nnc([C@H]2CCCN2C(=O)Nc2ccc3c(c2)N(C)C(=O)CO3)n1Cc1ccc(F)cc1 [Compound 386] | 0.05 to 0.5 µM
4 | Cc1nnc([C@H]2C[C@@H](O)CN2C(=O)NC2(c3ccc(C(F)(F)F)cc3)CC2)n1Cc1ccc(Cl)cc1 [Compound 387] | < 0.05 µM
5 | Cc1nnc([C@H]2C[C@H](O)CN2C(=O)Nc2ccc(C(F)(F)F)cc2)n1Cc1ccc(Cl)cc1 [Compound 388] | 0.05 to 0.5 µM
6 | Cc1nnc([C@H]2C[C@@H](O)CN2C(=O)NC(c2ccccc2)c2ccccc2)n1Cc1ccc(Cl)cc1 [Compound 389] | 0.05 to 0.5 µM
7 | Cc1nnc([C@H]2C[C@@H](O)CN2C(=O)Nc2ccc(Cl)cc2F)n1Cc1ccc(Cl)cc1 [Compound 390] | 0.5 to 5 µM
8 | Cc1nnc([C@H]2C[C@@H](O)CN2C(=O)Nc2ccc(C(F)(F)F)cc2)n1Cc1ccc(Cl)cc1 [Compound 391] | 0.5 to 5 µM
9 | Cc1onc(-c2ccccc2)c1NC(=O)N1C[C@H](O)C[C@@H]1c1nnc(C)n1Cc1ccc(Cl)cc1 [Compound 392] | 0.05 to 0.5 µM
10 | Cc1nnc([C@H]2C[C@@H](O)CN2C(=O)N[C@H]2CCOc3cc(C(F)(F)F)ccc32)n1Cc1ccc(Cl)cc1 [Compound 393] | < 0.05 µM
11 | Cc1nn(C)c(C)c1N/C(=N\C#N)N1CCC[C@@H]1c1nnc(C)n1Cc1ccc(Cl)cc1 [Compound 397] | 0.05 to 0.5 µM
12 | Cc1nnc([C@H]2CCCN2C(=O)NC2(c3ccccc3)CC2)n1Cc1ccc(F)cc1 [Compound 399] | 0.05 to 0.5 µM
13 | Cc1noc(C)c1NC(=O)N1CCC[C@@H]1c1nnc(C)n1[C@@H](C)c1ccc(Cl)cc1 [Compound 400] | 0.5 to 5 µM
14 | C[C@@H](NC(=O)N1CCC[C@@H]1c1nnc(CO)n1Cc1ccc(Cl)cc1)c1ccc(Cl)cc1 [Compound 401] | 0.05 to 0.5 µM
15 | C[C@H](NC(=O)N1CCC[C@@H]1c1nnc(CO)n1Cc1ccc(Cl)cc1)c1ccc(Cl)cc1 [Compound 402] | < 0.05 µM
16 | Cc1nnc([C@H]2CCCN2C(=O)N[C@@H]2c3ccccc3C[C@H]2O)n1Cc1ccc(Cl)cc1 [Compound 403] | 0.05 to 0.5 µM
17 | Cc1nnc([C@H]2CCCN2C(=O)N[C@H]2CCOc3cc(C(F)(F)F)ccc32)n1Cc1ccc(Cl)c(Cl)c1 [Compound 410] | 0.05 to 0.5 µM
18 | Cc1nnc([C@H]2CCCN2C(=O)N[C@H]2CCOc3cc(C(F)(F)F)ccc32)n1Cc1ccc(F)cc1 [Compound 411] | < 0.05 µM
19 | Cc1nnc([C@H]2CCCN2C(=O)NC2(c3ccccc3)CC2)n1Cc1ccc(Cl)c(Cl)c1 [Compound 412] | < 0.05 µM
20 | CNCc1nnc([C@H]2CCCN2C(=O)N[C@H]2CCOc3cc(C(F)(F)F)ccc32)n1Cc1ccc(Cl)cc1 [Compound 413] | 0.05 to 0.5 µM
21 | NCc1nnc([C@H]2CCCN2C(=O)N[C@H]2CCOc3cc(C(F)(F)F)ccc32)n1Cc1ccc(Cl)cc1 [Compound 414] | 0.05 to 0.5 µM
22 | Cc1nnc([C@H]2CCCN2/C(=N/C#N)NCc2ccc(Cl)cc2Cl)n1Cc1ccc(Cl)cc1 [Compound 420] | 0.05 to 0.5 µM

Row | Structure (SMILES) | IC50
23 | Cc1nnc([C@H]2CCCN2C(=O)Nc2cc(C(F)(F)F)ccc2S(C)(=O)=O)n1Cc1ccc(Cl)cc1 [Compound 423] | 0.05 to 0.5 µM
24 | Cc1nnc([C@H]2CCCN2C(=O)Nc2c(F)cc(Cl)cc2F)n1Cc1ccc(Cl)cc1 [Compound 429] | < 0.05 µM
25 | Cc1nnc([C@H]2CCCN2C(=O)Nc2ccc3c(c2)S(=O)(=O)C=C3)n1Cc1ccc(Cl)cc1 [Compound 430] | 0.05 to 0.5 µM
26 | Cc1nnc([C@H]2C[C@H](O)CN2C(=O)N[C@H]2CCOc3cc(C(F)(F)F)ccc32)n1Cc1ccc(Cl)cc1 [Compound 432] | < 0.05 µM
27 | Cc1onc(-c2ccccc2)c1NC(=O)N1C[C@@H](O)C[C@@H]1c1nnc(C)n1Cc1ccc(Cl)cc1 [Compound 433] | < 0.05 µM
28 | Cc1nnc([C@H]2C[C@H](O)CN2C(=O)Nc2ccc(Cl)cc2F)n1Cc1ccc(Cl)cc1 [Compound 435] | < 0.05 µM
29 | Cc1nnc([C@H]2C[C@H](O)CN2C(=O)NC2(c3ccc(C(F)(F)F)cc3)CC2)n1Cc1ccc(Cl)cc1 [Compound 436] | < 0.05 µM
30 | Cc1nnc([C@H]2C[C@H](O)CN2C(=O)Nc2ccc(Cl)c(C(F)(F)F)c2)n1Cc1ccc(Cl)cc1 [Compound 437] | < 0.05 µM
31 | Cc1nnc([C@H]2C[C@@H](O)CN2C(=O)N[C@@H](C)c2ccc(Cl)cc2)n1Cc1ccc(Cl)cc1 [Compound 438] | < 0.05 µM
32 | Cc1nnc([C@H]2C[C@@H](O)CN2C(=O)NCc2ccc(C(F)(F)F)cc2)n1Cc1ccc(Cl)cc1 [Compound 439] | 0.05 to 0.5 µM
33 | Cc1nnc([C@H]2C[C@H](O)CN2C(=O)NC2CCOc3cc(C#N)ccc32)n1Cc1ccc(Cl)cc1 (stereo partly shown) [Compound 440] | < 0.05 µM
34 | Cc1nnc([C@H]2CCCN2C(=O)Nc2ccc(Cl)c(C(F)(F)F)c2)n1Cc1ccc(Cl)cc1 [Compound 441] | 0.05 to 0.5 µM
35 | Cc1nnc([C@H]2C[C@@H](O)CN2C(=O)NCc2ccc(Cl)cc2Cl)n1Cc1ccc(Cl)cc1 [Compound 442] | < 0.05 µM
36 | Cc1nnc([C@H]2CCCN2C(=O)Nc2ccc(Cl)c(S(C)(=O)=O)c2)n1Cc1ccc(Cl)cc1 [Compound 443] | 0.05 to 0.5 µM
37 | Cc1nnc([C@H]2C[C@@H](O)CN2C(=O)NC2CCOc3cc(C#N)ccc32)n1Cc1ccc(Cl)cc1 (stereo partly shown) [Compound 444] | 0.05 to 0.5 µM
38 | Cc1noc(C)c1NC(=O)N1C[C@@H](O)C[C@@H]1c1nnc(C)n1Cc1ccc(Cl)cc1 [Compound 445] | 0.05 to 0.5 µM
39 | Cc1nnc([C@H]2C[C@@H](O)CN2C(=O)Nc2ccc(Cl)c(C(F)(F)F)c2)n1Cc1ccc(Cl)cc1 [Compound 446] | 0.05 to 0.5 µM
40 | Cc1noc(C)c1NC(=O)N1C[C@H](O)C[C@@H]1c1nnc(C)n1Cc1ccc(Cl)cc1 [Compound 447] | 0.05 to 0.5 µM
41 | O=C(Nc1ccc(Cl)c(C(F)(F)F)c1)N1CCC[C@@H]1c1ncnn1Cc1ccc(Cl)cc1 [Compound 448] | 0.05 to 0.5 µM
42 | Cc1nnc([C@H]2C[C@@H](O)CN2C(=O)Nc2ccc(F)c(C(F)(F)F)c2)n1Cc1ccc(Cl)cc1 [Compound 449] | 0.5 to 5 µM
43 | CC(=O)N1CCC(NC(=O)N2CCC[C@@H]2c2nnc(C)n2Cc2ccc(Cl)cc2)CC1 [Compound 450] | 0.5 to 5 µM

Other lines, results leading:

Row | IC50 | Structure (SMILES)
44 | 0.05 to 0.5 µM | Cc1ccc(NC(=O)N2CCC[C@@H]2c2nnc(C)n2Cc2ccc(Cl)cc2)c(Cl)n1 [Compound 394]
45 | < 0.05 µM | Cc1nnc([C@H]2CCCN2C(=O)Nc2ccc(Cl)nc2Cl)n1Cc1ccc(Cl)cc1 [Compound 395]
46 | 0.05 to 0.5 µM | Cc1nnc([C@H]2CCCN2C(=O)Nc2ccc(C#N)nc2)n1Cc1ccc(Cl)cc1 [Compound 396]
47 | < 0.05 µM | Cc1nc(Cl)ccc1NC(=O)N1CCC[C@@H]1c1nnc(C)n1Cc1ccc(Cl)cc1 [Compound 398]
48 | < 0.05 µM | Cc1nc(C(F)(F)F)ccc1NC(=O)N1CCC[C@@H]1c1nnc(C)n1Cc1ccc(Cl)cc1 [Compound 404]
49 | < 0.05 µM | Cc1nnc([C@H]2CCCN2C(=O)Nc2ccc(Cl)cc2C(F)(F)F)n1Cc1ccc(Cl)cc1 [Compound 405]
50 | < 0.05 µM | Cc1ccc(S(C)(=O)=O)c(C)c1NC(=O)N1CCC[C@@H]1c1nnc(C)n1Cc1ccc(Cl)cc1 [Compound 406]
51 | 0.05 to 0.5 µM | CC[C@H](C)NC(=O)N1CCC[C@@H]1c1nnc(C)n1Cc1ccc(Cl)cc1 [Compound 407]
52 | 0.05 to 0.5 µM | Cc1nnc([C@H]2CCCN2C(=O)Nc2ccc(Cl)c(F)c2)n1Cc1ccc(Cl)cc1 [Compound 408]
53 | < 0.05 µM | Cc1cc(Cl)ccc1NC(=O)N1CCC[C@@H]1c1nnc(C)n1Cc1ccc(Cl)cc1 [Compound 409]
54 | < 0.05 µM | Cc1ncc(NC(=O)N2CCC[C@@H]2c2nnc(C)n2Cc2ccc(Cl)cc2)c(C)n1 [Compound 415]
55 | < 0.05 µM | Cc1nnc([C@H]2CCCN2C(=O)Nc2cccc(Cl)c2F)n1Cc1ccc(Cl)cc1 [Compound 416]
56 | < 0.05 µM | Cc1nnc([C@H]2CCCN2C(=O)Nc2ccc(Cl)cc2C#N)n1Cc1ccc(Cl)cc1 [Compound 417]
57 | < 0.05 µM | Cc1nnc([C@H]2CCCN2C(=O)Nc2ccc(Br)cc2F)n1Cc1ccc(Cl)cc1 [Compound 418]
58 | 0.05 to 0.5 µM | Cc1nnc([C@H]2CCCN2C(=O)Nc2cc(Cl)ccc2F)n1Cc1ccc(Cl)cc1 [Compound 419]
59 | 0.05 to 0.5 µM | Cc1nnc([C@H]2CCCN2C(=O)Nc2ccc(Cl)cc2Cl)n1Cc1ccc(Cl)cc1 [Compound 421]
60 | 0.05 to 0.5 µM | Cc1nnc([C@H]2CCCN2C(=O)Nc2ccc(F)cc2F)n1Cc1ccc(Cl)cc1 [Compound 422]
61 | 0.05 to 0.5 µM | Cc1nnc([C@H]2CCCN2C(=O)Nc2ccc(Cl)c(Cl)c2)n1Cc1ccc(Cl)cc1 [Compound 424]
62 | < 0.05 µM | Cc1nnc([C@H]2CCCN2C(=O)Nc2ccc(F)cc2Cl)n1Cc1ccc(Cl)cc1 [Compound 425]
63 | < 0.05 µM | Cc1cc(NC(=O)N2CCC[C@@H]2c2nnc(C)n2Cc2ccc(Cl)cc2)c(F)cc1Cl [Compound 426]
64 | < 0.05 µM | Cc1nnc([C@H]2CCCN2C(=O)Nc2cc(F)c(Cl)cc2F)n1Cc1ccc(Cl)cc1 [Compound 427]
65 | < 0.05 µM | COc1cc(Cl)ccc1NC(=O)N1CCC[C@@H]1c1nnc(C)n1Cc1ccc(Cl)cc1 [Compound 428]
66 | < 0.05 µM | Cc1nc(C(F)(F)F)ncc1NC(=O)N1CCC[C@@H]1c1nnc(C)n1Cc1ccc(Cl)cc1 [Compound 431]
67 | < 0.05 µM | Cc1nnc([C@H]2CCCN2C(=O)Nc2ccc(Cl)cc2S(C)(=O)=O)n1Cc1ccc(Cl)cc1 [Compound 434]
